Measurements published in patent US20050130890A1, “Amyloid beta is a ligand for FPR class receptors” (priority 2001, published 2005).

What was measured:
[1] = test system: N9 murine microglial cell line; test: Chemotaxis of N9 microglial cells; type: cell-based, mouse; conditions: LPS-activated N9 cells; PTX 100 ng/ml, 37° C., 30 min
[2] = test system: human monocytes; test: Ca2+ mobilization in fura-2 loaded human monocytes; type: cell-based; conditions: PT-treated cells, 20 μM Aβ42
Excerpt: Reagents and cells. Aβ peptide (Aβ42) and the peptide with reversed sequence (Aβ42-1) were purchased from California Peptide Research (Napa, Calif.). All peptides were examined for endotoxin contamination and were negative at highest concentrations used in the study. Human peripheral blood monocytes were isolated from buffy coats (National Institutes of Health Clinical Center, Bethesda, Md.) enriched for mononuclear cells by using iso-osmotic Percoll gradient. The purity of the cell preparations was examined by morphology and was >90%. Rat basophilic leukemia cell line (RBL-2H3) transfected with epitope-tagged N-formylpeptide receptor (FPR) (designated ETFR) was a kind gift of Dr. R. Snyderman (Duke University, Durham, N.C.). cDNA cloning and establishment of FPRL1-transfected human embryonic kidney (HEK) 293 cells (FPRL1/293) were described previously (Gao J. L. & Murphy P. M. 1993 J Biol Chem 268:[…]). All the transfected cells were maintained in culture media as described (Su S. B. et al. 1999 J Exp Med 189:395-402).
Chemotaxis assays and measurement of calcium mobilization. Chemotaxis assays were performed using 48-well chemotaxis chambers (Deng X. et al. 1999 Blood 94:1165-1673). The results were expressed as the mean number (±SD) of migrated cells in three high-powered fields in three replicate samples. Chemotaxis index, which represented the fold increase in the number of cells migrated in response to chemoattractants over the cell response to control medium, also was used. Ca^+ mobilization was measured by stimulating fura-2 AM-loaded human monocytes or receptor-transfected cells with various agents (Deng X. et al. 1999 Blood 94:1165-1673; Su S. B. et al. 1999 J Exp Med 189:395-402) and recording the ratio of fluorescence at 340 and 380 nm in a luminescence spectrometer with FL WinLab program (Perkin-Elmer, Beaconsfield, UK).

In the case of pertussis toxin, the “effect of pretreatment on chemotaxis to Aβ” value [1] is reported as “completely blocked” and the “effect of preincubation on monocyte calcium flux in response to Aβ42” value [2] is reported as “completely abolished”.
